# Test results reported in US8247422B2, “Use of condensed pyrimidine derivatives for the treatment of rheumatoid arthritis” (priority 2007, dated 2012).
# How the values were obtained:
# [1] = system: adjuvant-induced rheumatoid arthritis in rats; test: Adjuvant-induced RA (AIA) model in rats; format: in vivo, Male Lewis rats; design: % Inhibition of swelling in each time interval relative to negative control: concentration or dose not given beside the values; details: for Mean right hind paw volume (ml water displaced): CFA treated paw, acute phase; for Mean left hind paw volume (ml water displaced): CFA untreated paw, delayed phase
# Protocol: The ability of compounds of formula I to treat adjuvant-induced rheumatoid arthritis in rats was examined. The AIA model is one thought mainly to involve T cell-mediated mechanisms.
# Male Lewis rats weighing 200±10 g were housed in groups of 6 with free access to food and water. 0.1 ml CFA (Mycobacterium tuberculosis 3 mg/ml) was injected into the subplantar region of the right bind paw of each rat on day 1 of the study.
# Test substances were first dissolved in NaOH (if required) as explained above then suspended in 2% Tween 80 to a range of concentrations. 10 ml/kg was administered by oral gavage for 21 consecutive days, beginning (on day 1) 1 hour before injection of CFA. 2% Tween 80 was used as a negative control and methotrexate in 2% Tween 80 as a positive control.
# Right hind paw volumes were measured by water displacement on day 0, 4 hours after the CFA injection on day 1, and on days 7, 14, and 21. Left hind paw volumes were measured by water displacement on days 0, 1, 7, 14, and 21. […] 30% or more reduction in paw volume relative to the negative control was considered significant anti-inflammatory activity. Body weight was also recorded on days 1, 7, 14, and 21. Symptoms of swelling in the front paws, tail, nose and ears were recorded on day 21.
# [2] = system: collagen-induced rheumatoid arthritis in mice
# [3] = system: rheumatoid arthritis; details: RA patients; cited from earlier work
# [4] = in vivo; cited from earlier work
compound,measurement,setting,value
"CN(Cc1cnc2nc(N)nc(N)c2n1)c1ccc(C(=O)N[C@@H](CCC(=O)O)C(=O)O)cc1 [MTX, methotrexate]",Mean right hind paw volume (ml water displaced),"[1]; day 0, oral gavage",1.06 mL
same,Mean right hind paw volume (ml water displaced),"[1]; day 1 (4 hours after CFA), oral gavage",1.56 mL
same,Mean right hind paw volume (ml water displaced),"[1]; day 7, oral gavage",1.79 mL
same,Mean right hind paw volume (ml water displaced),"[1]; day 14, oral gavage",1.48 mL
same,Mean right hind paw volume (ml water displaced),"[1]; day 21, oral gavage",1.37 mL
same,Mean left hind paw volume (ml water displaced),"[1]; day 0, oral gavage",1.06 mL
same,Mean left hind paw volume (ml water displaced),"[1]; day 1, oral gavage",1.06 mL
same,Mean left hind paw volume (ml water displaced),"[1]; day 7, oral gavage",1.08 mL
same,Mean left hind paw volume (ml water displaced),"[1]; day 14, oral gavage",1.10 mL
same,Mean left hind paw volume (ml water displaced),"[1]; day 21, oral gavage",1.14 mL
same,% Inhibition of swelling in each time interval relative to negative control,"[1]; left hind paw (CFA untreated), days 0-14",95%
same,% Inhibition of swelling in each time interval relative to negative control,"[1]; left hind paw (CFA untreated), days 0-21",94%
same,% Inhibition of swelling in each time interval relative to negative control,"[1]; right hind paw (CFA treated), days 0-1",15%
same,% Inhibition of swelling in each time interval relative to negative control,"[1]; right hind paw (CFA treated), days 0-7",34%
same,% Inhibition of swelling in each time interval relative to negative control,"[1]; right hind paw (CFA treated), days 0-14",73%
same,% Inhibition of swelling in each time interval relative to negative control,"[1]; right hind paw (CFA treated), days 0-21",83%
same,therapeutic dose as percentage of maximum tolerated dose,"[2]; mice, intraperitoneal, once daily for 6 weeks",twice as high
same,"signs of anaemia at the end of the study (red blood cell count, FIG. 3)","[2]; mouse, in vivo",severe signs of anaemia
same,patients who do not respond sufficiently well to treatment with methotrexate alone,[3],around 35%
same,fraction undergoing fast elimination unchanged after uptake,[4],more than 80%
